Data reported in US20070166547A1, “Use of a layer consisting of hydrophobic linear, or two-dimensional polycyclic aromatics as a barrier layer or an encapsulation and electric components constructed with a layer of this type and comprising organic polymers” (priority 2003, published 2007).

Assays:
[1] = test system: adenosine-sensitive receptors of erythrocytes; assay: Chemiluminescence study of bonding to erythrocytes and competition with adenosine; type: binding, mice of line BALB/c; settings: 37° C. vs 4° C.; 10^−7 to 10^−5 M
Experimental: The interaction of compounds 2, 15, 21, 37 according to the invention with adenosine-sensitive receptors of erythrocytes of female mice of line BALB/c of an age of 8-12 months was investigated.
The dependence of the chemiluminescence intensity of the compounds according to the invention in an alkaline solution of 0.1N NaOH was determined in the presence of hydrogen peroxide being an initiator of chemiluminescence. The chemiluminescence was studied using the <<LKB>> chemiluminometer.
The erythrocytes of peripheral blood of the mice at first were washed three times by a normal physiological solution with centrifuging and then diluted in the Henks solution without glucose by 10 volumes of distilled water immediately used in the experiment.
At the first stage of the experiments the washed erythrocytes were incubated at a temperature of 37° C. or at 4° C. with solutions of the compounds according to the invention at a concentration of 10^−7 to 10^−5 M for 5-30 minutes, then washed by a normal physiological solution with repeated centrifuging in the cold. The obtained suspension of erythrocytes with the bound compounds according to the invention was placed in 0.1N solution of NaOH with addition of hydrogen peroxide at a final concentration of 10^−7 M. The chemiluminescence intensity was measured. A suspension of erythrocytes without compounds according to the invention was used as a control medium.
At the second stage of the experiments the washed erythrocytes were incubated at a temperature of 37° C. with solutions of the compounds according to the invention at a concentration of 10^−11 to 10^−8M during
5-30 minutes, then washed twice with a normal physiological solution by centrifuging in the cold, the obtained suspension was mixed with an adenosine solution at a concentration of 10^−6 to 10^−4 and incubated for 15 minutes, then washed twice with a normal physiological solution with centrifuging in the cold. The obtained suspension of erythrocytes with the compounds according to the invention was placed in 0.1N solution of NaOH with addition of hydrogen peroxide in the final concentration of 10^−7 M. The chemiluminescence intensity was measured.

[2] = test system: embyronic fibroblasts of mouse NIH-3T3; assay: Endocellular pHi of fibroblasts by microspectrofluorimetry (FDA, BCECF-AM); type: cell-based; settings: for rise of pHi: fibroblasts in an attached spread state; for increase of pHi: 20 minutes
Experimental: The effect of the compounds according to the invention on the endocellular pH, embyronic fibroblasts of mouse NIH-3T3 supplied by the All-Russian Collection of Cellular Cultures of the Institute of Cytology of the Russian Academy of Sciences St. Petersburg was investigated. The cells were grown in the DMEM (Sigma) medium containing 2.2 g/l of sodium bicarbonate with addition of 80.0 mkg/ml of gentamicin and 10.0% embryonal veal serum at a temperature of 37° C. in an atmosphere containing 5.0% of carbon dioxide. For these experiments use was also made of a medium buffer with 5.0 mM of HEPES and 15.0 mM of sodium bicarbonate without serum or with addition of 5.0% serum. The cells were calculated with the help of a hemocytometer. A share of the dead cells was determined by colouring trypan blue.
The measurements of the endocellular pHi were carried out with the help of colorants FDA (Sigma) and BCECF-AM (Calbiochem) on a microspectrofluorimeter by a standard technique (Koshevoy Yu. V., Akatov V. S., Grobova M. E. Microspectrofluorimeter for measuring endocellular pH (micro pH)”. Devices and equipment for studies in the field of physical-and-chemical biology and biotechnology. Pushchino, 1990. P. 8-14).
The cells at a temperature of 37° C. were colored within 5 minutes with 5.0 mkM PDA that before the colouring was prepared from a 10.0 mM solution in acetone by dilution for 30 minutes in a phosphatic buffer to 0.1 mM or 2.0 mkM 1.0 mM solution BCECF-AM in DMSO.
The two-wave method of determining pHi was used based on the ratio intensities of fluorescence of the cells on two wavelengths (Akatov V. S. et all), “Endocellular pH and substrate dependence of proliferation of fibroblasts of Chinese hamster, Cytology, 1991, 33 (7), p. 86-94). The fluorescence was excited by light at λ=490 nm, the emission was recorded simultaneously with two photomultipliers on wavelengths λ=535 nm and λ=570 nm. The K-ratio of the fluorescence on two wavelengths was determined with a deduction of the background fluorescence of the medium near the investigated cells for 40-60 individual cells, which are then averaged taking into account the measurement error. A thermostatically controlled table was used that allowed measurements to be conducted at a temperature of 37° C. An account was taken for the photodynamic damage of the pigmented cells during-long-time continuous illumination by excited light. The readings were taken from a section of the preparation exposed to light for not more than 5 minutes.
The calibration curves for determining the absolute pHi values by magnitude K were constructed using the Thomas technique (Thomas J. A., Bushbaum R. N., Zimniak A. w Racker E. “Intracellular pH measurements in Ehrlich ascites tumor cells utilizing spectroscopic probe generated in situ”, Biochemistry, 1979, v. 18, p. 2210-2218), for which case the pigmented cells treated for 5-10 minutes with carboxyacidic nigericyn (Calbiochem) at a concentration of 5-10 mkg/ml was placed in a solution with a high content of potassium—130 mM KCl, 1.0 mM MgCl2, 20.0 mM of HEPES) and with pH values from 6.2 to 7.6. The K values were measured in the media with different pH assuming that pHi of the cells equals to the pH of the medium due to the action of nigericyn, which exchanges potassium ions for protons and at a high content of potassium in the medium counterbalances the pH of the medium and cells. Calibration curves were used based on the fluorescence of same medium with addition of 5.0 mkM of fluorescence or BCECF were used to the control the stability of the of the instrument readings.
The correctness of the technique was confirmed in the experiments on measurements of pH values of cells treated with protonofor monencine raising pH of the cells due to replacement of sodium ions by protons, and by determining the dependence of the change of pHi on the change of the pH of the medium. […]

[3] = medium with 10.0% blood serum, 0.02 mkg/ml, suspension
[4] = medium with 10.0% blood serum, 0.2 mkg/ml, suspension
[5] = medium with 10.0% blood serum, 2.0 mkg/ml, suspension
[6] = medium with 10.0% blood serum, 20.0 mkg/ml, suspension
[7] = medium without blood serum, 0.02 mkg/ml
[8] = medium without blood serum, 0.2 mkg/ml
[9] = medium without blood serum, 2.0 mkg/ml
[10] = medium without blood serum, 20.0 mkg/ml
[11] = medium without blood serum, 200 mkg/ml
[12] = medium without blood serum, 1000 mkg/ml

Compound | bond with the erythrocytes: dependence on incubation temperature [1] | rise of pHi ([2]; 2.0 mkg/ml) [unit pHi] | rise of pHi ([2]; 20.0 mkg/ml) [unit pHi] | increase of pHi [2, 3] | increase of pHi [2, 4] [unit pH] | increase of pHi [2, 5] [unit pH] | increase of pHi [2, 6] | increase of pHi [2, 7] | increase of pHi [2, 8] | increase of pHi [2, 9] [unit pHi] | increase of pHi [2, 10] [unit pHi] | increase of pHi [2, 11] | increase of pHi [2, 12]
Nc1cccc2c(=O)[nH][nH]c(=O)c12.[Na] [Compound 15, sodium salt of 5-amino-benzo[d]-3H-pyridazine-1,4-dione] | does not depend on the temperature | 0.10 | 0.07 | do not initiate a change of pH | 0.1 | 0.12 | do not initiate a change of pH | no effect was found | no effect was found | 0.08 | 0.08 | no effect was found | no effect was found
O=c1[nH]n([C@@H]2O[C@H](CO)[C@@H](O)[C@H]2O)c(=O)c2nc(O)cnc12.[Na].[Na] [Compound 23, disodium salt of 2-hydroxy-7-(β-D-ribofuranosile)pyrazine[2,3-Cl]-6H-pyridazine-5,8-dione] |  | 0.10 | 0.07 | do not initiate a change of pH | 0.1 | 0.12 | do not initiate a change of pH | no effect was found | no effect was found | 0.08 | 0.08 | no effect was found | no effect was found
Nc1ncc2c(=O)[nH][nH]c(=O)c2n1 [Compound 36, 2-amino-pyrimido[4,5-d]-6H-pyridazine-5,8-dione] |  | 0.10 | 0.07 | do not initiate a change of pH | 0.1 | 0.12 | do not initiate a change of pH | no effect was found | no effect was found | 0.08 | 0.08 | no effect was found | no effect was found
O=c1[nH][nH]c(=O)c2c(Br)ncnc12.[K] [Compound 37, potassium salt of 4-bromine-pyrimido[4,5-D]-6H-pyridazine-5,8-dione] | does not depend on the temperature |  |  |  |  |  |  |  |  |  |  |  | 
Nc1cnc2c(=O)n([C@@H]3O[C@H](CO)[C@@H](O)[C@H]3O)[nH]c(=O)c2n1.[Na] [Compound 21, sodium salt of 3-amino-7-(β-D-ribofuranosile)pyrazine[2,3-d]-6H-pyridazine-5,8-dione] | does not depend on the temperature |  |  |  |  |  |  |  |  |  |  |  | 
Nc1ccnc2c(=O)n([C@@H]3O[C@H](CO)[C@@H](O)[C@H]3O)[nH]c(=O)c12 [Compound 2, 4-amino-7-(β-D-ribofuranosile)pyrido[2,3-d]-6H-pyridazine-5,8-dione] | does not depend on the temperature |  |  |  |  |  |  |  |  |  |  |  | 
